# Data taken from paper PMC7377239, “Cardiovascular Effects of Polychlorinated Biphenyls and Their Major Metabolites” (Environmental Health Perspectives, 2020).
# Where a name gives a salt, the structure may show the parent alone. Read-outs that look alike come from different tables or passages of the source.
# Assays:
# HUVECs [1] = assay: High-content imaging cytotoxicity in HUVECs, 24 h; format: cell-based, human; settings: Homo sapiens, HUVEC, 24 h, HUVECs; for viability at 0.01 µM / activity at 0.01 µM / viability at 0.1 µM / activity at 0.1 µM / viability at 1 µM / activity at 1 µM / viability at 10 µM / activity at 10 µM / viability at 100 µM / activity at 100 µM: 0.00 µM = 100.00; for viability at 0.1 µM / activity at 0.1 µM: 0.10 µM; for minimal effective concentration: top concentration 100.00 µM
# Method: (§1) Similar to the cultivation of iCell®-endothelial cells, HUVEC maintenance and experimentation are detailed elsewhere ([Iwata et al. 2017]). Briefly, HUVECs were thawed, seeded, and grown in T75 tissue culture flasks in Medium 199 with EGM™-2 BulletKits™. HUVECs were incubated at regular cell culture conditions, 37°C and 5% CO2 , and passaged every 2–3 d using TrypLE™ Express. To ensure adequate endothelial function, experiments were performed with cells between passages 1 and 5.
# Cytotoxicity was assessed in parallel experiments. For iCell®-endothelial cells, 384-well plates were coated with a 30μg/mL fibronectin solution ( 10μL/well ) and incubated for 2 h at RT. iCell®-endothelial cells were dissociated with TrypLE™ Express and prepared into a solution to achieve 750 cells per well and 50μL of total volume. The fibronectin solution was removed from the 384-well plate, and cells were plated. For HUVECs, similar dissociation and the same cell density were used for plating with the exclusion of the fibronectin solution. Cells were incubated at 37°C and 5% CO2 until a monolayer was formed, typically 3–5 d. 2×PCB plates were created with the requisite maintenance medium. Before treatment, the medium in the wells was exchanged to 25μL/well of fresh maintenance medium. 2×PCB chemical solutions ( […] ) were added. After 24 h incubation at 37°C and 5% CO2 , cells were stained with Hoechst 33342, MitoTracker™ Orange, and calcein AM for 20 min before replacing the staining media with FluoroBright DMEM. Cell culture plates were imaged using the ImageXpress® Micro Confocal high-content imaging system (Molecular Devices). Images were acquired at 10× magnification with DAPI, TRITC, or FITC filter (Hoechst 33342, MitoTracker™, or calcein AM, respectively). The multiwavelength cell scoring applications module in MetaXpress™ (Molecular Devices) was used to analyze the images.
# (§2) Phenotypic responses were quantitatively assessed using concentration–response modeling as detailed elsewhere ([Sirenko et al. 2017]). Briefly, phenotypic readouts were normalized to vehicle controls and fit to a four-parameter logistic model in R studio software (version 3.1.1; R Development Core Team). Following EPA guidance on dose–response modeling, a cutoff of one standard deviation across means of vehicle control (i.e., 0.5% vol/vol DMSO in cell culture media) wells was applied to determine the point-of-departure (POD) values ([U.S. EPA 2012]). In the absence of a concentration–response, the highest tested concentration (i.e., 100μM ) was assigned as “no observable adverse effect level.” The concentration–response assessment R script, as well as templates for vehicle and concentration–response data, are available as a supplement to Sirenko et al. ([2017]). The ability of physicochemical properties to predict differences in PODs were evaluated by multiregression and mixed-effects modeling using R.
# HUVECs [2] = assay: Tube formation (tubulogenesis) assay in HUVECs, 18 h; format: cell-based, human; settings: Homo sapiens, HUVEC, 18 h, HUVECs; for activity at 0.1 µM: 0.10 µM; for minimal effective concentration: top concentration 100.00 µM
# Method: as §1
# Tube formation assays were performed on Geltrex™ LDEV-free reduced growth factor basement membrane using both iCell®-endothelial cells and HUVECs in 384-well format exactly as detailed in Iwata et al. ([2017]). Negative controls included media-only and vehicle control (i.e., 0.5% vol/vol DMSO in cell culture media) wells. Positive assay controls were consistent with previously published reports ([Iwata et al. 2017]) and included TAB ( 50μM ) as a cytotoxic control, and nocodazole ( 0.01–1μM ), suramin ( 0.5–50μM ), histamine ( 0.1–100μM ), and chloroquine ( 1–500μM ) as chemicals associated with specific effects on ECs. Each test chemical was screened in triplicate for each concentration. Briefly, for iCell®-endothelial cells, starvation media consisted of VascuLife® basal medium with 4 mM L-glutamine LifeFactor and 0.1% iCell®-endothelial cells medium supplement. To counter dilution effects, a 2× concentration of the HUVEC maintenance medium supplemented with additional VEGF was created (EGM™-2 BulletKits™ at 2× concentration; also the VEGF component was replaced with 12.5 ng/mL VEGF). Geltrex™ LDEV-free reduced growth factor basement membrane was thawed overnight and dispensed into 384-well plates ( 10μL/well ) with tapping and rotating to evenly coat. The plates were incubated for 1 h in a cell culture incubator at 37°C and 5% CO2 . A 2× PCB plate (containing all of the PCBs and metabolites in dose–response) was prepared in basal media and added, 25μL per well, to the Geltrex™ coated plates. On separate plates, cells were seeded 7,500 (iPSC- ECs) or 3,500 (HUVEC) cells/well. Cells were exposed to chemicals overnight at 37°C and 5% CO2 and stained with 3× concentration of calcein AM ( 25μL /well, 6μmol/L ) for 15 min before imaging. Images were captured at 4× magnification with the FITC filter (calcein AM). Images were analyzed with the angiogenesis module software within MetaXpress™ (Molecular Devices).
# as §2
# [3] = 24 hr, read-out: huvec.cyto.24hr
# [4] = 24 hr, read-out: huvec.mito.24hr
# [5] = 24 hr, read-out: huvec.mitoint.24hr
# [6] = 24 hr, read-out: huvec.nma.24hr
# [7] = 24 hrs, read-out: huvec.tc.24hrs
# [8] = 0.00 µM = 100.00, read-out: huvec.mtl.18hr
# [9] = 0.00 µM = 100.00, read-out: huvec.tlps.18hr
# [10] = 0.00 µM = 100.00, read-out: huvec.tta.18hr
# [11] = 0.00 µM = 100.00, read-out: huvec.ttl.18hr
smiles,measurement,setting,value
O=S(=O)(O)Oc1cccc(-c2ccc(Cl)cc2)c1 [3'-yl PCB 3 sulfate],viability at 0.01 µM,HUVECs [1]; [3],96%
same,activity at 0.01 µM,HUVECs [1]; [4],95.2%
same,activity at 0.01 µM,HUVECs [1]; [5],93.5%
same,activity at 0.01 µM,HUVECs [1]; [6],100%
same,viability at 0.1 µM,HUVECs [1]; [3],97%
same,activity at 0.1 µM,HUVECs [1]; [4],97.2%
same,activity at 0.1 µM,HUVECs [1]; [5],105%
same,activity at 0.1 µM,HUVECs [1]; [6],101%
same,viability at 1 µM,HUVECs [1]; [3],92.7%
same,activity at 1 µM,HUVECs [1]; [4],92.1%
same,activity at 1 µM,HUVECs [1]; [5],104%
same,activity at 1 µM,HUVECs [1]; [6],101%
same,viability at 10 µM,HUVECs [1]; [3],119%
same,activity at 10 µM,HUVECs [1]; [4],118%
same,activity at 10 µM,HUVECs [1]; [5],89.3%
same,activity at 10 µM,HUVECs [1]; [6],92.6%
same,viability at 100 µM,HUVECs [1]; [3],88%
same,activity at 100 µM,HUVECs [1]; [4],87.5%
same,activity at 100 µM,HUVECs [1]; [5],102%
same,activity at 100 µM,HUVECs [1]; [6],94.9%
same,minimal effective concentration,"HUVECs [1]; 24 hr, read-out: huvec.cyto.24hr POD",100 µM
same,minimal effective concentration,"HUVECs [1]; 24 hr, read-out: huvec.mito.24hr POD",100 µM
same,minimal effective concentration,"HUVECs [1]; 24 hr, read-out: huvec.mitoint.24hr POD",100 µM
same,minimal effective concentration,"HUVECs [1]; 24 hr, read-out: huvec.nma.24hr POD",100 µM
same,viability at 0.01 µM,HUVECs [1]; [7],96%
same,viability at 0.1 µM,HUVECs [1]; [7],97.1%
same,viability at 1 µM,HUVECs [1]; [7],92.7%
same,viability at 10 µM,HUVECs [1]; [7],119%
same,viability at 100 µM,HUVECs [1]; [7],88.2%
same,minimal effective concentration,"HUVECs [1]; 24 hrs, read-out: huvec.tc.24hrs POD",100 µM
same,activity at 0.01 µM,HUVECs [2]; [8],106%
same,activity at 0.01 µM,HUVECs [2]; [9],119%
same,activity at 0.01 µM,HUVECs [2]; [10],121%
same,activity at 0.01 µM,HUVECs [2]; [11],112%
same,activity at 0.1 µM,HUVECs [2]; [8],110%
same,activity at 0.1 µM,HUVECs [2]; [9],121%
same,activity at 0.1 µM,HUVECs [2]; [10],141%
same,activity at 0.1 µM,HUVECs [2]; [11],142%
same,activity at 1 µM,HUVECs [2]; [8],111%
same,activity at 1 µM,HUVECs [2]; [9],129%
same,activity at 1 µM,HUVECs [2]; [10],141%
same,activity at 1 µM,HUVECs [2]; [11],137%
same,activity at 10 µM,HUVECs [2]; [8],97.5%
same,activity at 10 µM,HUVECs [2]; [9],141%
same,activity at 10 µM,HUVECs [2]; [10],104%
same,activity at 10 µM,HUVECs [2]; [11],102%
same,activity at 100 µM,HUVECs [2]; [8],58%
same,activity at 100 µM,HUVECs [2]; [9],37.8%
same,activity at 100 µM,HUVECs [2]; [10],52.3%
same,activity at 100 µM,HUVECs [2]; [11],58.3%
same,minimal effective concentration,HUVECs [2]; read-out: huvec.mtl.18hr POD,15.5 µM
same,minimal effective concentration,HUVECs [2]; read-out: huvec.tlps.18hr POD,100 µM
same,minimal effective concentration,HUVECs [2]; read-out: huvec.tta.18hr POD,100 µM
same,minimal effective concentration,HUVECs [2]; read-out: huvec.ttl.18hr POD,100 µM
